Test results taken from patent publication US20060111416A1, “Octahydropyrrolo[3,4-C]pyrrole derivatives” (priority 2004, published 2006).

The molecules below were run against T1, histamine H4 receptor (Homo sapiens, UniProt Q9H3N8) (assay: H4 binding ([3H]-Histamine competition binding on CHO cell membranes)). Conditions: [3H]-Histamine 3 nM, membranes of CHO cells expressing the histamine H4 receptor; Ki calculated from IC50 by Cheng-Prussoff.
T1 construct: expressed in transfected cells; host or cells: CHO cells (membranes)
Protocol: Cell pellets from CHO cells expressing the histamine H4 receptor were homogenised in ice-cold 50 mM Tris-HCl/0.5 mM CaCl2 buffer containing a protease inhibitor cocktail (Roche®, United Kingdom) using a ground glass homogeniser. Homogenates were centrifuged at 48000 g for 30 min at 4° C. The membrane pellet was resuspended in fresh buffer and the centrifugation step was repeated as described above. The membrane pellet was resuspended in 50 mM Tris-HCl in the same volume as the original cell pellet.
The reaction was terminated by rapid filtration through 0.5% polyethylenimine-soaked Unifilter GF/B plates (Packard) followed by three washes with 1 ml ice-cold 50 mM Tris-HCl. Filters were dried for 45 min at 45° C. and bound radiolabel was determined using scintillation counting techniques. Non-specific binding was defined with 5 μM clobenpropit.

Ki [nM]	SMILES
67	CN1C[C@@H]2CN(C(=O)c3nc4ccc(F)c(F)c4[nH]3)C[C@@H]2C1 [Example 25, 6,7-Difluoro-2-{[(3aR,6aS)-5-methylhexahydropyrrolo[3,4-c]pyrrol-2(1H)-yl]carbonyl}-1H-benzimidazole]
47	CN1C[C@@H]2CN(C(=N)c3nc4cc(F)cc(F)c4[nH]3)C[C@@H]2C1 [Example 63, 1-(4,6-Difluoro-1H-benzimidazol-2-yl)-1-[(3aR, 6aS)-5-methylhexahydropyrrolo[3,4-c]pyrrol-2(1H)-yl]methanimine]
20	CN1C[C@@H]2CN(C(=O)c3cc4cc(F)ccc4[nH]3)C[C@@H]2C1 [Example 16, 5-Fluoro-2-{[(3aR,6aS)-5-methylhexahydropyrrolo[3,4-c]pyrrol-2(1H)-yl]carbonyl}-1H-indole]
7	Cc1cccc2nc(C(=N)N3C[C@H]4CN(C)C[C@H]4C3)[nH]c12 [Example 62, 1-(4-Methyl-1H-benzimidazol-2-yl)-1-[(3aR, 6aS)-5-methylhexahydropyrrolo[3,4-c]pyrrol-2(1H)-yl]methanimine]
24	CN1C[C@@H]2CN(C(=N)c3nc4cccc(F)c4[nH]3)C[C@@H]2C1 [Example 66, 1-(7-Fluoro-1H-benzimidazol-2-yl)-1-[(3aR, 6aS)-5-methylhexahydropyrrolo[3,4-c]pyrrol-2(1H)-yl]methanimine]
7	CN1C[C@@H]2CN(C(=N)c3nc4cc(F)c(F)cc4[nH]3)C[C@@H]2C1 [Example 59, 1-(5,6-Difluoro-1H-benzimidazol-2-yl)-1-[(3aR,6aS)-5-methylhexahydropyrrolo[3,4-c]pyrrol-2(1H)-yl]methanimine]
53	Cc1c(F)ccc2nc(C(=O)N3C[C@H]4CN(C)C[C@H]4C3)[nH]c12 [Example 41, 5-fluoro-4-methyl-2-{[(3aR,6aS)-5-methylhexahydropyrrolo [3,4-c]pyrrol-2(1H)-yl]carbonyl}-1H-benzimidazole]
91	CN1C[C@@H]2CN(C(=O)c3nc4ccccc4[nH]3)C[C@@H]2C1 [Example 1, 2-{[(3aR,6aS)5-Methylhexahydropyrrolo[3,4-c]pyrrol-2(1H)-yl]carbonyl}-1H-benzimidazole]
82	CN1C[C@@H]2CN(C(=O)c3nc4cc(F)ccc4[nH]3)C[C@@H]2C1 [Example 3, 5-Fluoro-2-{[(3aR,6aS)-5-methylhexahydropyrrolo[3,4-c]pyrrol-2(1H)-yl]carbonyl}-1H-benzimidazole]
6	CN1C[C@@H]2CN(C(=N)c3nc4cc(F)ccc4[nH]3)C[C@@H]2C1 [Example 60, 1-(5-Fluoro-1H-benzimidazol-2-yl)-1-[(3aR,6aS)-5-methylhexahydropyrrolo[3,4-c]pyrrol-2(1H)-yl]methanimine]
20	CN1C[C@@H]2CN(C(=O)c3cc4cccc(F)c4[nH]3)C[C@@H]2C1 [Example 22, 7-Fluoro-2-{[(3aR,6aS)-5-methylhexahydropyrrolo[3,4-c]pyrrol-2(1H)-yl]carbonyl}-1H-indole]
84	Cc1ccc2[nH]c(C(=O)N3C[C@H]4CN(C)C[C@H]4C3)cc2c1 [Example 17, 5-Methyl-2-{[(3aR,6aS)-5-methylhexahydropyrrolo[3,4-c]pyrrol-2(1H)-yl]carbonyl}-1H-indole]
110	Cc1cccc2nc(C(=O)N3C[C@H]4CN(C)C[C@H]4C3)[nH]c12 [Example 26, 7-Methyl-2-{[(3aR,6aS)-5-methylhexahydropyrrolo[3,4-c]pyrrol-2(1H)-yl]carbonyl}-1H-benzimidazole]
28	CN1C[C@@H]2CN(C(=O)c3cc4cc(O)ccc4[nH]3)C[C@@H]2C1 [Example 15, 2-{[(3aR,6aS)-5-Methylhexahydropyrrolo[3,4-c]pyrrol-2(1H)-yl]carbonyl}-1H-indol-5-ol]
60	CN1C[C@@H]2CN(C(=N)c3nc4c(F)c(F)c(F)cc4[nH]3)C[C@@H]2C1 [Example 67, 1-[(3aR, 6aS)-5-Methylhexahydropyrrolo[3,4-c]pyrrol-2(1H)-yl]-1-(4,5,6-trifluoro-1H-benzimidazol-2-yl)methanimine]
91	Cc1c(Cl)ccc2[nH]c(C(=O)N3C[C@H]4CN(C)C[C@H]4C3)nc12 [Example 48, 5-Chloro-4-methyl-2-{[(3aR,6aS)-5-methylhexahydropyrrolo[3,4-c]pyrrol-2(1H)-yl]carbonyl}-1H-benzimidazole]
4	Cc1c(F)ccc2nc(C(=N)N3C[C@H]4CN(C)C[C@H]4C3)[nH]c12 [Example 64, 1-(6-Fluoro-7-methyl-1H-benzimidazol-2-yl)-1-[(3aR, 6aS)-5-methylhexahydropyrrolo[3,4-c]pyrrol-2(1H)-yl]methanimine]
24	CN1C[C@@H]2CN(C(=N)c3nc4c(F)c(F)ccc4[nH]3)C[C@@H]2C1 [Example 61, 1-(4,5-Difluoro-1H-benzimidazol-2-yl)-1-[(3aR, 6aS)-5-methylhexahydropyrrolo[3,4-c]pyrrol-2(1H)-yl]methanimine]
16	CN1C[C@@H]2CN(C(=O)c3cc4cc(Cl)ccc4[nH]3)C[C@@H]2C1 [Example 7, 5-Chloro-2-{[(3aR,6aS)-5-methylhexahydropyrrolo[3,4-c]pyrrol-2(1H)-yl]carbonyl}-1H-indole]
43	CN1C[C@@H]2CN(C(=O)c3cc4cc(Br)ccc4[nH]3)C[C@@H]2C1 [Example 21, 5-Bromo-2-{[(3aR,6aS)-5-methylhexahydropyrrolo[3,4-c]pyrrol-2(1H)-yl]carbonyl}-1H-indole]
117	CN1C[C@@H]2CN(C(=O)c3nc4cc(F)c(F)cc4[nH]3)C[C@@H]2C1 [Example 27, 5,6-Difluoro-2-{[(3aR,6aS)-5-methylhexahydropyrrolo[3,4-c]pyrrol-2(1H)-yl]carbonyl}-1H-benzimidazole]
100	CN1C[C@@H]2CN(C(=O)c3nc4c(F)c(F)c(F)cc4[nH]3)C[C@@H]2C1 [Example 58, 4,5,6-Trifluoro-2-{[(3aR,6aS)-5-methylhexahydropyrrolo [3,4-c]pyrrol-2(1H)-yl]carbonyl}-1H-benzimidazole]
12	Cc1c(Cl)ccc2nc(C(=N)N3C[C@H]4CN(C)C[C@H]4C3)[nH]c12 [Example 65, 1-(6-Chloro-7-methyl-1H-benzimidazol-2-yl)-1-[(3aR, 6aS)-5-methylhexahydropyrrolo[3,4-c]pyrrol-2(1H)-yl]methanimine]
26	CN1C[C@@H]2CN(C(=N)c3nc4cc(Cl)ccc4[nH]3)C[C@@H]2C1 [Example 68, 1-(5-Chloro-1H-benzimidazol-2-yl)-1-[(3aR, 6aS)-5-methylhexahydropyrrolo[3,4-c]pyrrol-2(1H)-yl]methanimine]
